Earlier results in patent publication US9561272B2, “Compositions and methods for modulating immune responses” (The University of Queensland, priority 2006, dated 2017).
Read-outs that look alike come from different tables or passages of the source.

Tested on: NF-κB
Conditions: cited from earlier work
[1] = Table 3, miscellaneous inhibitors of NF-κB, step of NF-κB function inhibited, per the cited reference

COc1cc([C@@H]2c3cc4c(c(OC)c3[C@H](O)[C@H]3COC(=O)[C@H]23)OCO4)cc(OC)c1O
Effect or point of inhibition [1]: Transactivation

CC(=O)OC(CC=C(C)C)C(C)=CC(O)CC(C)=CCOc1ccc2ccc(=O)oc2c1 (centres unmarked)
Effect or point of inhibition [1]: Transactivation

S=C([S-])OC1CC2CC1C1CCCC21.[K+] (centres unmarked)
Effect or point of inhibition [1]: Transactivation

CCOC(=O)c1cnc(NC2=C(C)C(=O)NC2=O)nc1C(F)(F)F
Effect or point of inhibition [1]: Transactivation

O=C(C=Cc1ccc(O)cc1)NCCc1c[nH]c2ccc(O)cc12
Effect or point of inhibition [1]: DNA binding

CS(=O)(=O)Nc1cc2occ(NC=O)c(=O)c2cc1Oc1ccccc1
Effect or point of inhibition [1]: DNA binding

COc1ccc(C=CC(=O)Nc2ccccc2C(=O)O)cc1OC
Effect or point of inhibition [1]: Transactivation

CC(C)[C@]12O[C@H]1[C@@H]1O[C@]13[C@]1(O[C@H]1C[C@H]1C4=C(CC[C@@]13C)C(=O)OC4)[C@@H]2O
Effect or point of inhibition [1]: DNA binding

CCCCCCCCCCCCCC(=O)OCC/C(SS/C(CCOC(=O)CCCCCCCCCCCCC)=C(\C)N(C=O)Cc1cnc(C)nc1N)=C(/C)N(C=O)Cc1cnc(C)nc1N
Effect or point of inhibition: Nuclear translocation

COc1cc(/C=C/C(=O)c2ccc(F)cc2)cc(OC)c1OC [3,4,5-trimethoxy-4′-fluorochalcone]
Effect or point of inhibition [1]: Transactivation

C=CCNC1=C2C[C@@H](C)C[C@H](OC)[C@H](O)[C@@H](C)/C=C(\C)[C@H](OC(N)=O)[C@@H](OC)/C=C\C=C(/C)C(=O)NC(=CC1=O)C2=O [17-allylamino-17-demethoxygeldanamycin]
Effect or point of inhibition [1]: Transactivation

CC1(C)C[C@@H]1C(=O)Nc1ccc(Oc2ccc(NC(=O)[C@H]3CC3(C)C)cn2)cc1 [APC0576]
Effect or point of inhibition [1]: Transactivation

C[C@H]1CCC[C@H](O)CCC/C=C/c2cc(O)cc(O)c2C(=O)O1 [Alpha-zearalenol]
Effect or point of inhibition [1]: Transactivation

C=C(C)[C@@H]1CC[C@]2(C(=O)O[C@@H]3O[C@H](CO[C@@H]4O[C@H](CO)[C@@H](O[C@@H]5O[C@@H](C)[C@H](O)[C@@H](O)[C@H]5O)[C@H](O)[C@H]4O)[C@@H](O)[C@H](O)[C@H]3O)CC[C@]3(C)[C@H](C[C@H]4OC(=O)C[C@@H](O)[C@]5(C)[C@@H]4[C@@]3(C)CC[C@H]5C(=C)C)[C@@H]12 [Chiisanoside]
Effect or point of inhibition: RelA Nuclear translocation

C[n+]1c2n(c(=O)c3ccccc31)CCc1c-2[nH]c2ccccc12 [Dehydroevodiamine]
Effect or point of inhibition [1]: Transactivation

N[C@@H](Cc1c[nH]cn1)C(=O)O [Histidine]
Effect or point of inhibition [1]: Transactivation

Oc1ccc(O)cc1 [Hydroquinone (HQ)]
Effect or point of inhibition: DNA binding

O=c1cc(N2CCOCC2)oc2c(-c3ccccc3)cccc12 [LY294,002]
Effect or point of inhibition [1]: Transactivation

O=c1cc(-c2ccc(O)c(O)c2)oc2cc(O)cc(O)c12 [Luteolin]
Effect or point of inhibition [1]: p65 Transactivation

N[C@@H](CCC(=O)N[C@@H](CSN=O)C(=O)NCC(=O)O)C(=O)O [Nitrosoglutathione]
Effect or point of inhibition: DNA binding

COc1ccc(-c2cc(=O)c3c(OC)c(OC)c(OC)c(OC)c3o2)cc1OC [Nobiletin]
Effect or point of inhibition [1]: Transactivation

COc1ccc(C(C)=O)c(O)c1 [Paeonol (from Mountain Cortx)]
Effect or point of inhibition [1]: Transactivation

S=C=NCCc1ccccc1 [Phenethylisothiocyanate]
Effect or point of inhibition [1]: Transactivation

CCCCCCCCCCCCC/C=C/[C@@H](O)[C@@H](N)CO[C@@H]1O[C@H](CO)[C@H](O)[C@H](O)[C@H]1O [Psychosine]
Effect or point of inhibition [1]: Transactivation

Cn1cc(C2=C(c3cn(CCCSC(=N)N)c4ccccc34)C(=O)NC2=O)c2ccccc21 [RO31-8220 (PKC inhibitor)]
Effect or point of inhibition [1]: Transactivation

C[S+]([O-])c1ccc(-c2nc(-c3ccc(F)cc3)c(-c3ccncc3)[nH]2)cc1 (centres unmarked) [SB203580 (p38 MAPK inhibitor)]
Effect or point of inhibition: Transactivation

O=C(Nc1ncc([N+](=O)[O-])s1)c1ccc([N+](=O)[O-])c(Cl)c1 [SM-7368 (small molecule)]
Effect or point of inhibition [1]: DNA binding

c1cc2c(cc1[C@H]1OC[C@H]3[C@@H]1CO[C@@H]3c1ccc3c(c1)OCO3)OCO2 [Sesamin (from sesame oil)]
Effect or point of inhibition [1]: DNA binding

COC1=C[C@@H]2[C@@H]3Cc4ccc(OC)c(O)c4[C@]2(CCN3C)CC1=O [Sinomenine]
Effect or point of inhibition [1]: DNA binding

O=C(O)c1cc(/N=N/c2ccc(S(=O)(=O)Nc3ccccn3)cc2)ccc1O [Sulfasalazine]
Effect or point of inhibition [1]: DNA binding

Cc1nc(C)c(C)nc1C [Tetramethylpyrazine]
Effect or point of inhibition [1]: DNA binding

[SH-].[SH-].[S]=[Mo]=[S] [Tetrathiomolybdate]
Effect or point of inhibition [1]: Transactivation

O=C1NC(=O)C(Cc2ccc3cc(OCc4ccccc4F)ccc3c2)S1 (centres unmarked) [Thiazolidinedione MCC-555]
Effect or point of inhibition [1]: DNA binding

CC(/C=C/C(=O)NO)=C\[C@@H](C)C(=O)c1ccc(N(C)C)cc1 [Trichostatin A]
Effect or point of inhibition [1]: RelA DNA binding

CCCCC/C=C\C/C=C\CCCCCCCC(=O)OCC(COC(=O)CCCCCCC/C=C\C/C=C\CCCCC)OC(=O)CCCCCCC/C=C\C/C=C\CCCCC [Trilinolein]
Effect or point of inhibition [1]: Transactivation

N#CC(C#N)=Cc1ccc([N+](=O)[O-])c(O)c1 [Tyrphostin AG-126]
Effect or point of inhibition [1]: DNA binding

C[C@H]1[C@H](C)CC[C@]2(C(=O)O)CC[C@]3(C)C(=CC[C@@H]4[C@@]5(C)CC[C@H](O)C(C)(C)[C@@H]5CC[C@]43C)[C@H]12 [Ursolic acid]
Effect or point of inhibition [1]: DNA binding

CC1=C(CO)C(=O)O[C@@H]([C@@H](C)[C@H]2CC[C@H]3[C@@H]4C[C@H]5O[C@]56[C@@H](O)C=CC(=O)[C@]6(C)[C@H]4CC[C@]23C)C1 [Withaferin A]
Effect or point of inhibition [1]: DNA binding

COc1c(O)cc(O)c2c(=O)cc(-c3ccccc3)oc12 [Wogonin (5,7-dihydroxy-8-methoxyflavone)]
Effect or point of inhibition [1]: DNA binding

COC[C@H]1OC(=O)c2coc3c2[C@@]1(C)C1=C(C3=O)[C@@H]2CCC(=O)[C@@]2(C)C[C@H]1OC(C)=O [Wortmannin (fungal metabolite)]
Effect or point of inhibition [1]: Transactivation

COc1cc(O)c(CC=C(C)C)c(O)c1C(=O)/C=C/c1ccc(O)cc1 [Xanthohumol (a hops prenylflavonoid)]
Effect or point of inhibition [1]: DNA binding

OC[C@@H](O)[C@H](O)[C@@H](O)CO [Xylitol]
Effect or point of inhibition [1]: DNA binding

Artemisolide
Effect or point of inhibition [1]: Transactivation

Siva-1
Effect or point of inhibition [1]: DNA binding

Tom1 (target of Myb-1) overexpression
Effect or point of inhibition [1]: DNA binding

mercury
Effect or point of inhibition: DNA binding

B1: PIAS3 (protein, UniProt Q9Y6X2 1-628, looked up)
E3 SUMO-protein ligase PIAS3: MAELGELKHMVMSFRVSELQVLLGFAGRNKSGRKHELLAKALHLLKSSCAPSVQMKIKELYRRRFPRKTLGPSDLSLLSLPPGTSPVGSPGPLAPIPPTLLAPGTLLGPKREVDMHPPLPQPVHPDVTMKPLPFYEVYGELIRPTTLASTSSQRFEEAHFTFALTPQQVQQILTSREVLPGAKCDYTIQVQLRFCLCETSCPQEDYFPPNLFVKVNGKLCPLPGYLPPTKNGAEPKRPSRPINITPLARLSATVPNTIVVNWSSEFGRNYSLSVYLVRQLTAGTLLQKLRAKGIRNPDHSRALIKEKLTADPDSEVATTSLRVSLMCPLGKMRLTVPCRALTCAHLQSFDAALYLQMNEKKPTWTCPVCDKKAPYESLIIDGLFMEILSSCSDCDEIQFMEDGSWCPMKPKKEASEVCPPPGYGLDGLQYSPVQGGDPSENKKKVEVIDLTIESSSDEEDLPPTKKHCSVTSAAIPALPGSKGVLTSGHQPSSVLRSPAMGTLGGDFLSSLPLHEYPPAFPLGADIQGLDLFSFLQTESQHYGPSVITSLDEQDALGHFFQYRGTPSHFLGPLAPTLGSSHCSATPAPPPGRVSSIVAPGGALREGHGGPLPSGPSLTGCRSDIISLD
Effect or point of inhibition [1]: Transactivation

B2: Secretory leukoprotease inhibitor (SLPI) (protein, UniProt P03973 26-132, looked up)
Antileukoproteinase: SGKSFKAGVCPPKKSAQCLRYKKPECQSDWQCPGKKRCCPDTCGIKCLDPVDTPNPTRRKPGKCPVTYGQCLMLNPPNFCEMDGQCKRDLKCCMGMCGKSCVSPVKA
Effect or point of inhibition [1]: DNA binding

B3: Siah2 (protein, UniProt O43255 1-324, looked up)
E3 ubiquitin-protein ligase …: MSRPSSTGPSANKPCSKQPPPQPQHTPSPAAPPAAATISAAGPGSSAVPAAAAVISGPGGGGGAGPVSPQHHELTSLFECPVCFDYVLPPILQCQAGHLVCNQCRQKLSCCPTCRGALTPSIRNLAMEKVASAVLFPCKYATTGCSLTLHHTEKPEHEDICEYRPYSCPCPGASCKWQGSLEAVMSHLMHAHKSITTLQGEDIVFLATDINLPGAVDWVMMQSCFGHHFMLVLEKQEKYEGHQQFFAIVLLIGTRKQAENFAYRLELNGNRRRLTWEATPRSIHDGVAAAIMNSDCLVFDTAIAHLFADNGNLGINVTISTCCP
Effect or point of inhibition [1]: DNA binding

B4: SIRT1 Deacetylase overexpression (protein, UniProt Q96EB6 2-747, looked up)
NAD-dependent protein …: ADEAALALQPGGSPSAAGADREAASSPAGEPLRKRPRRDGPGLERSPGEPGGAAPEREVPAAARGCPGAAAAALWREAEAEAAAAGGEQEAQATAAAGEGDNGPGLQGPSREPPLADNLYDEDDDDEGEEEEEAAAAAIGYRDNLLFGDEIITNGFHSCESDEEDRASHASSSDWTPRPRIGPYTFVQQHLMIGTDPRTILKDLLPETIPPPELDDMTLWQIVINILSEPPKRKKRKDINTIEDAVKLLQECKKIIVLTGAGVSVSCGIPDFRSRDGIYARLAVDFPDLPDPQAMFDIEYFRKDPRPFFKFAKEIYPGQFQPSLCHKFIALSDKEGKLLRNYTQNIDTLEQVAGIQRIIQCHGSFATASCLICKYKVDCEAVRGDIFNQVVPRCPRCPADEPLAIMKPEIVFFGENLPEQFHRAMKYDKDEVDLLIVIGSSLKVRPVALIPSSIPHEVPQILINREPLPHLHFDVELLGDCDVIINELCHRLGGEYAKLCCNPVKLSEITEKPPRTQKELAYLSELPPTPLHVSEDSSSPERTSPPDSSVIVTLLDQAAKSNDDLDVSESKGCMEEKPQEVQTSRNVESIAEQMENPDLKNVGSSTGEKNERTSVAGTVRKCWPNRVAKEQISRRLDGNQYLFLPPNRYIFHGAEVYSDSEDDVLSSSSCGSNSDSGTCQSPSLEEPMEDESEIEEFYNGLEDEPDVPERAGGAGFGTDGDDQEAINEAISVKQEVTDMNYPSNKS
Effect or point of inhibition [1]: DNA binding
